Literature values as cited in publication PMC4946565 (Bioorganic & medicinal chemistry letters, 2016).

Test system: VMAT2
Settings: selectivity VMAT2 over DAT; ref [4], [9], [10]

SMILES: CN1[C@@H](CC(=O)c2ccccc2)CCC[C@H]1C[C@H](O)c1ccccc1 [Lobeline, lobeline]
- fold higher affinity for VMAT2 compared to DAT: about 100 fold
